# Measurements: patent publication US20050136444A1 (priority 2003, published 2005)
# Counter-ions that a name gives are not always drawn. Like-named read-outs stand apart in the source and are kept apart here.
# Tests used:
# NPFF2b = target: T1, NPFF2b (Homo sapiens, UniProt Q9Y5X5); assay: cAMP assay in transiently transfected HEK-T cells, NPFF2; type: cell-based; settings: HEK-T cell, read-out: NPFF2b % Efficacy Mean
# T1 construct: expressed in transfected cells; host or cells: HEK-T
# Procedure: (§1) An assay was established for measuring cAMP in transiently transfected cells that takes advantage of the fact that most cells that are transfected with one gene, can be simultaneously transfected with other genes. Thus, the NPFF1 and NPFF2 receptors were transfected along with a Gs-coupled receptor (EP2) at a ratio of 5:1.
# This set up was routinely used for the transfection of HEK-T cells with NPFF1 and NPFF2 receptors. […] Cells were incubated for 15 minutes at 37° C. At the end of incubation, cells were lysed and the remainder of the assay performed as per DiscoveRx protocol.
# Cells were incubated for another 15 minutes at 37° C. following which the cells were lysed and processed as per kit protocol.
# NPFF1 = NPFF1 (Homo sapiens, UniProt Q9GZQ6); assay: Receptor Selection and Amplification Technology (R-SAT) functional assay, NPFF1; type: cell-based; parameters: expressed in transfected cells; host or cells: NIH3T3; settings: for EC50: NA = No activity detectable at the highest dose tested (20 μM), read-out: NPFF1 pEC50 (converted)
# NPFF1, sequence (Q9GZQ6 whole entry, species assumed): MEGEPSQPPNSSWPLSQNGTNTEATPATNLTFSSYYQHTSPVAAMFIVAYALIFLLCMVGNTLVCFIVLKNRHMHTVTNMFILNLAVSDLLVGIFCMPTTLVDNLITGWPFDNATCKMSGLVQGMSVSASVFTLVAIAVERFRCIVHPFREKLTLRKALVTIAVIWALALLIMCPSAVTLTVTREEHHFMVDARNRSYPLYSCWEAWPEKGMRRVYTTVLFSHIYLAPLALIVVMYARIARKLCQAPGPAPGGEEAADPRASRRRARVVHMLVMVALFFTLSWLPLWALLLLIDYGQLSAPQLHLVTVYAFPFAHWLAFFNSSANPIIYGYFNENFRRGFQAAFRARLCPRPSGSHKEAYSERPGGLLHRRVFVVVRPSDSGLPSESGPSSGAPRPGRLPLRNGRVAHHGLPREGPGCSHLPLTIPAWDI
# Procedure: (§2) Briefly, NIH3T3 cells were grown in 96 well tissue culture plates to 70-80% confluence. Cells were transfected for 16-20 h h with plasmid DNAs using Polyfect (Qiagen Inc.) as per manufacturer's protocols. R-SAT's were generally performed with 40 ng/well of receptor and 20 ng/well of β-galactosidase plasmid DNA. All receptor and G-protein constructs used were in the pSI-derived mammalian expression vector (Promega Inc) as described previously. […] For large-scale transfections, cells were transfected for 16-20 h, then trypsinized and frozen in DMSO. Frozen cells were later thawed, plated at ˜20,000 cells per well of a 96 half-area well plate that contained drug. With both methods, cells were then grown in a humidified atmosphere with 5% ambient CO2 for five days. Media was then removed from the plates and marker gene activity was measured by the addition of the β-galactosidase substrate o-nitrophenyl β-D-galactopyranoside (ONPG, in PBS with 0.5% NP-40). The resulting colorimetric reaction was measured in a spectrophotometric plate reader (Titertek Inc.) at 420 nm. All data were analyzed using the computer program XLFit (IDBSm).
# (§3) R-SAT assay was conducted as set forth in […]
# NPFF2 = target: T2, NPFF2 (Homo sapiens, UniProt Q9Y5X5); assay: Receptor Selection and Amplification Technology (R-SAT) functional assay, NPFF2; type: cell-based
# T2 construct: expressed in transfected cells; host or cells: NIH3T3
# T2 sequence (Q9Y5X5 103-522): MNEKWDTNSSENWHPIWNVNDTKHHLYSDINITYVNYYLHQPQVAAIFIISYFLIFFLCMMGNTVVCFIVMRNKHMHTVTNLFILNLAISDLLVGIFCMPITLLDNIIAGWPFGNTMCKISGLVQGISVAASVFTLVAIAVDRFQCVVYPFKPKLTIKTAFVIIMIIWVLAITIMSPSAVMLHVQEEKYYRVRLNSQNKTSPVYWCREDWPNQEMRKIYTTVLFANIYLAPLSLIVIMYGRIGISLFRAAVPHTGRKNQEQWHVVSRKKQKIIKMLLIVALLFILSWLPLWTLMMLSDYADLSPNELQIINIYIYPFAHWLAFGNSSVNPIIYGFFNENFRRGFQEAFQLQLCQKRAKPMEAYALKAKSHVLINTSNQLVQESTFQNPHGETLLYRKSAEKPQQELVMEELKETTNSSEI
# Procedure: as §2, §3
# rats = assay: Observed behaviors / side effects after systemic administration; type: in vivo, rat; settings: rats, i.p.
# Procedure: These behaviors typically precede “barrel-rolling” seizures.
# These effects persisted between 15 and 20 minutes. These effects were not observed in rats that received doses less than 10 mg/kg.
# These effects persisted between 15 and 20 minutes and were shown by both sham-operated and SNL rats. These effects were not observed in rats that received doses less than 10 mg/kg. [drawing 22]
# However, these effects were more robust and of longer duration (60-90 min).
# These effects persisted between 60 and 90 minutes and were shown by both sham-operated and SNL rats. These effects were not observed in rats that received doses less than 10 mg/kg. [drawing 23]
# A model of neuropathic pain was created in rats by tight ligation of the L5 and L6 spinal nerves. […] Rats were then treated with various doses of dPQR (3, 10 and 30 mg/kg, i.p.) and paw withdrawal thresholds were tested across a period of 3 hours.
# A model of neuropathic pain was created in rats by tight ligation of the L5 and L6 spinal nerves. […] Rats were then treated with various doses of Compound 3099 (1, 3 and 10 mg/kg, i.p.) and paw withdrawal thresholds were tested across a period of 3 hours.
# In an attempt to increase the efficacy of Compound 3099 in the SNL model, we administered a dose of 30 mg/kg (i.p.) to SNL rats. […] Further, these behaviors were also transient, such that, by the end of the testing period these effects appeared to have resolved.
# [1] = test system: 52° C. Water Tail Flick Test; assay: 52° C. Water Tail Flick Test, intrathecal administration; type: in vivo, rat; settings: rats
# Procedure: Rats were implanted with chronically indwelling intrathecal catheters (PE-10; 7.5 cm) allowing for the delivery of compounds to the lumbar spinal cord. As a positive control, rats were treated with various doses of morphine (3, 10 and 30 μg).
# Rats were implanted with chronically indwelling intrathecal catheters (PE-10; 7.5 cm) allowing for the delivery of compounds to the lumbar spinal cord.
# Rats were implanted with chronically indwelling intrathecal catheters (PE-10; 7.5 cm) allowing for the delivery of compounds to the lumbar spinal cord. In order to rule out the possibility that the lack of antinociception produced by NPFF was due to the degradation of the peptide we administered 1DME (a stable NPFF analog).
# Barrel Rotations [2] = settings: 60 μg, reported by Panula et al. 1996; cited from earlier work
# Barrel Rotations [3] = assay: Barrel rotations after ICV administration of NPFF; type: in vivo, rat; settings: naive rats
# Description: Given that this is the only mention in the literature with respect to NPFF and barrel-rotation, we attempted to replicate this effect using naive rats implanted with ICV cannula.
# EP2 receptor = target: T3, EP2 receptor (Homo sapiens, UniProt P43116); assay: cAMP response to PGE2 in HEK-T cells (EP2 co-transfection); type: cell-based; settings: doses as high 10 μM
# T3 construct: expressed in transfected cells; host or cells: HEK-T
# T3 sequence (P43116 whole entry): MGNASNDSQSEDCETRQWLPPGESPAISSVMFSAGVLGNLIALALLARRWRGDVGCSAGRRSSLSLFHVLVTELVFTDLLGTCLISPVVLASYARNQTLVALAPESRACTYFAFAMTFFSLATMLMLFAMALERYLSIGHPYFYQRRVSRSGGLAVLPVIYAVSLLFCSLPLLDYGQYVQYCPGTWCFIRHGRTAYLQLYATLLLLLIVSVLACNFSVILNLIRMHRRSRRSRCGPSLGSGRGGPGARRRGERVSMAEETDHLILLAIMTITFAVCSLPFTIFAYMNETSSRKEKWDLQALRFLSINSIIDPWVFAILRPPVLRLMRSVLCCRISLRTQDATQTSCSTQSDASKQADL
# Description: as §1
# [4] = R-SAT, Table 1, Efficacy is relative to endogenous ligand, read-out: NPFF1 % Efficacy
# [5] = R-SAT, Table 1, Efficacy is relative to endogenous ligand, read-out: NPFF2 % Efficacy
# [6] = R-SAT, Table 1, NA = No activity detectable at the highest dose tested (20 μM), read-out: NPFF2 pEC50 (converted)
# T1 sequence (Q9Y5X5 103-522 limits assumed): as the sequence (Q9Y5X5 103-522) above
SMILES,Emax (NPFF1; [4]),"EC50 (NPFF1; R-SAT, Table 1)",Emax (NPFF2; [5]),EC50 (NPFF2; [6]),further results
"Cl.N=C(N)NN=Cc1ccc(Cl)c(Cl)c1 [Compound 1045.HCl, 1-(3,4-Dichlorobenzylideneamino)guanidine Hydrochloride]",,,,,"Emax (NPFF2b): 34%; Emax (NPFF1; R-SAT data, Table 2, multiple entries = different batches, read-out: NPFF1 % Efficacy Mean): 17.7%; EC50 (NPFF2; NPFF2b pEC50 Mean, R-SAT data, Table 2, multiple entries = different batches): 1 µM; Emax (NPFF2; R-SAT data, Table 2, multiple entries = different batches, read-out: NPFF2b % Efficacy Mean): 67.6%; side effects observed (rats; 10 mg/kg): demonstrated writhing behavior and appeared lethargic; side effects at doses less than 10 mg/kg (rats): not observed"
"COc1ccc(C=NNC(=N)N)c(OC)c1 [Compound 4003, 1-(2,4-Dimethoxybenzylideneamino)guanidine Hydrochloride]",41%,12.6 µM,41%,6.31 µM,
"COc1cccc(C=NNC(=N)N)c1OC [Compound 4004, 1-(2,3-Dimethoxybenzylideneamino)guanidine Hydrochloride]",15%,,49%,10 µM,
"CCOc1ccc(C=NNC(=N)N)cc1 [Compound 4005, 1-(4-Ethoxybenzylideneamino)guanidine Hydrochloride]",89%,10 µM,49%,5.01 µM,
"CCCOc1ccc(C=NNC(=N)N)cc1 [Compound 4006, 1-(4-n-Propoxybenzylideneamino)guanidine Hydrochloride]",78%,3.98 µM,53%,2 µM,
"[H]/N=C(\N)NN=Cc1ccc(Cl)cc1 [Compound 4008, 1-(4-Chlorobenzylideneamino)guanidine Hydrochloride]",47%,3.98 µM,64%,6.31 µM,
"COc1cc(OC)c(C=NNC(=N)N)cc1Br [Compound 4015, 1-(5-Bromo-2,4-dimethoxybenzylideneamino)guanidine Hydrochloride]",37%,7.94 µM,64%,2 µM,
"CN1CC[C@]23c4c5ccc(O)c4O[C@H]2[C@@H](O)C=C[C@H]3[C@H]1C5 [Morphine, morphine]",,,,,"A50, antinociception ([1]; 95% CI): 9.8 µg; antinociception in 52° C. water tail flick test ([1]; morphine 3, 10, 30 μg, NPFF 100 μg, 1045 11.6 or 115.5 μg, 1DME 5.6, 55.6 or 556.0 μg): produced dose-related antinociception"
"CC(C)C[C@H](NC(=O)[C@@H](N)Cc1ccccc1)C(=O)N[C@@H](Cc1ccccc1)C(=O)N[C@@H](CCC(N)=O)C(=O)N1CCC[C@H]1C(=O)N[C@@H](CCC(N)=O)C(=O)N[C@@H](CCCN=C(N)N)C(=O)N[C@@H](Cc1ccccc1)C(N)=O [NPFF, Neuropeptide FF]",,,,,barrel-rotation after ICV administration (Barrel Rotations [2]): elicits barrel-rotation; rats demonstrating barrel rolling seizures (Barrel Rotations [3]; 60 μg): 0 out of 3; rats demonstrating barrel rolling seizures (Barrel Rotations [3]; 120 μg): 1 out of 2; rats demonstrating barrel rolling seizures (Barrel Rotations [3]; 150 μg): 3 out of 5
CCCCC[C@H](O)/C=C/[C@H]1[C@H](O)CC(=O)[C@@H]1C/C=C\CCCC(=O)O [PGE2],,,,,response in un-transfected HEK-T cells (EP2 receptor): no response
